Experiment [1] deals with transdifferentiating ELC (TuDC-ELC). Nature of the experiment: Matrigel tube formation assay of TuDC-ELC. It is filed as cell-based, human. As to conditions: for tube formation of TuDC-ELC in Matrigel: 10 μg/mL, 7 days, clinical and subclinical concentrations. From the text:
We have recently developed a model for an alternative pathway of tumor angiogenesis. […] These endothelial-like cells (ELC) can transdifferentiate from tumor-associated dendritic cells under specific culture conditions (11). Briefly, monocytes are elutriated from leukapheresis products of healthy human blood donors and cultured in the presence of granulocyte-macrophage-colony stimulating factor (GM-CSF) and interleukin 4 (IL-4) to stimulate the differentiation of dendritic cells (DC). In addition, cells are treated with a cocktail specifically released by tumor cells (M-CSF, IL.6 and lactate, Gottfried et al., manucript submitted) to promote the outgrowth of tumor-associated dendritic cells (TuDC).
In addition, they are able to form tube-like structures in Matrigel™, an in vitro assay of angiogenesis.
(§1) The Matrigel™ assay is one of the most popular and widely used in vitro angiogenesis assays (22). Matrigel™ is a semisolid synthetic mixture of extracellular matrix proteins which simulate the matrix that physiologically exist beneath the endothelial cell wall of a blood vessel. When the cells of question are seeded onto this matrix in microscopic chamber slides, they are activated to form tubular structures in 3-7 days, but only in the case that they have an endothelial phenotype. Therefore, this assay is suitable to show the potential capacity of cells to give rise to a tumor vasculature.
(§2) TuDC-ELC and mature, differentiated endothelial cells, [human umbilical vene (HUVEC) or microvascular endothelial cells (HMEC) as “stable” controls] were incubated in the presence or absence of oligotide or Defibrotide (10 μg/mL each) for 7 days.
By the help of a complimentary software from the NIH (Image J, http://rsb.info.nih.gov/ij/), we are able to quantify these effects, the total length of tubes and the area of the photograph are assessed, the microvascular density (MVD) is then given in total length/area [pix-1].

Experiment [2] deals with human umbilical vene (HUVEC) endothelial cells. Kind of experiment: Matrigel tube formation assay of HUVEC. It is filed as cell-based. Particulars: single addition, 10 μg/mL, 7 days. As for the experimental part:
as §1, §2

Experiment [3] relates to microvascular endothelial cells (HMEC). Kind of experiment: Matrigel tube formation assay of HMEC. It is filed as cell-based, human. As to conditions: single addition, 10 μg/mL, 7 days. The procedure:
as §1, §2

For experiment [4], the system named is human microvascular endothelial cells. Kind of experiment: Angiogenesis assay of microvascular endothelial cells vascularizing through a layer of dermal fibroblasts. It is filed as cell-based. As for the experimental part: The aortic ring assay investigates macrovascular endothelial cells. But often, the tumor vasculature consists of microvascular endothelial cells. Therefore, a third in vitro angiogenesis assay was performed on the basis of microvascular endothelial cells vascularizing through a layer of dermal fibroblasts after 9-11 days of culture. These vessel-like structures can subsequently be visualized by staining for CD31 and vWF.

The next experiment deals with human gastric carcinoma. Nature of the experiment: Dorsal skin chamber assay, human gastric carcinoma mouse model (Xenograft system). It is filed as in vivo. As to conditions: first data; treated vs control tumors. From the text:
We are currently performing a dorsal skin chamber assay (14) that investigates the effect of defibrotide in a highly vascularized human gastric carcinoma mouse model (Xenograft system). […] This set of experiments will be reproduced in due time.
Background: In xenograft studies the graft and the host belong to different species.

For experiment [5], the system named is activated p70S6 kinase (p-p70S6). Kind of experiment: Western Blot analyses of activated p70S6 kinase. As to conditions: preliminary evidence. It is filed as cell-based.

As for defibrotide, in experiment [1], the “tube formation of TuDC-ELC in Matrigel” value is recorded as “inhibit tube formation”. In experiment [1] (TuDC-ELC, p=0.02, TTEST, FIG. 1B), the “microvascular density (MVD), total length/area” value is listed as “downregulates”. For the same substance, the tube formation potential result in experiment [2] and in experiment [3] was “not affected” each time. Also, the “angiogenesis of human microvascular endothelial cells” value in experiment [4] (daily application, 9-11 days of culture, CD31 and vWF staining) was “block angiogenesis”. For the same substance, the most effective concentration result in experiment [4] (human microvascular endothelial cells, FIGS. 3A and B) is recorded as “around 10 μg/mL”. Moreover, the “microvascular density (MVD) of tumors” value in the experiment with human gastric carcinoma is “lower than that of control tumors”. The “effect on activated p70S6 kinase (p-p70S6)” value in experiment [5] is “downregulating effect”.

As to oligotide, the “tube formation of TuDC-ELC in Matrigel” value in experiment [1] is recorded as “inhibit tube formation”.
